Where two headings read alike, the source gives them in different places.
Tests used:
Assay in all cases: stopped-flow CO2 hydrase assay
Assay type in all cases: biochemical
[1] = biological target: T1, hCA IX (Homo sapiens, UniProt Q16790)
T1 construct: gene CA9; recombinant, obtained in-house
Excerpt: stopped-flow CO2 hydrase assay on hCA IX

[2] = biological target: T2, hCA II (Homo sapiens, UniProt P00918)
T2 construct: gene CA2; recombinant, obtained in-house; cytosolic isoform
Excerpt: stopped-flow CO2 hydrase assay on hCA II

[3] = biological target: T3, hCA I (Homo sapiens, UniProt P00915)
T3 construct: gene CA1; recombinant, obtained in-house; cytosolic isoform
Excerpt: stopped-flow CO2 hydrase assay on hCA I

[4] = biological target: T4, hCA XII (Homo sapiens, UniProt O43570)
T4 construct: gene CA12; recombinant, obtained in-house
Excerpt: stopped-flow CO2 hydrase assay on hCA XII

T4 sequence (O43570 25-354): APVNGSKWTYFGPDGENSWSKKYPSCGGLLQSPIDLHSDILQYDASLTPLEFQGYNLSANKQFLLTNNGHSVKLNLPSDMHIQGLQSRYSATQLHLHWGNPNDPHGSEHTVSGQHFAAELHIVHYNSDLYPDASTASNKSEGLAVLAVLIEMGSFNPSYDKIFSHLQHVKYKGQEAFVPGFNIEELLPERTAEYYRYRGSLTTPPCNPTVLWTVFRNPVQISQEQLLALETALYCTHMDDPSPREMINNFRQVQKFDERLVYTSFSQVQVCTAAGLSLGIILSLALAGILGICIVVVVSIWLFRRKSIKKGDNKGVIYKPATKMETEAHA
T3 sequence (P00915 2-261): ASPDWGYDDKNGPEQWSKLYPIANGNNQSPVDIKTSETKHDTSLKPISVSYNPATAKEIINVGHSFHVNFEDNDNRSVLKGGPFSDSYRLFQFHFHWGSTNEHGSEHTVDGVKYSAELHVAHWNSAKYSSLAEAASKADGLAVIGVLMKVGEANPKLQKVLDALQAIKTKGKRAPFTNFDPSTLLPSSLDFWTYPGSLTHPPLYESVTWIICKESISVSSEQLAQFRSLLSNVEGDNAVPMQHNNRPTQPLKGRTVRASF

| Compound | Ki ([1]; read-out: hCA IX) [µM] | Ki [2] [µM] | Ki [3] [µM] | Ki [4] [µM] | Ki ([1]; read-out: hCA I) [µM] |
| --- | --- | --- | --- | --- | --- |
| O=C(O)CN1C(=O)SC(=Cc2ccc(Br)cc2)C1=O [3e, 2-(5-(4-bromobenzylidene)-2,4-dioxothiazolidin-3-yl)acetic acid] | 33.3 | > 100 | > 100 | 0.91 |  |
| O=C(O)CN1C(=O)SC(=Cc2ccccc2Cl)C1=O [3d, 2-(5-(2-chlorobenzylidene)-2,4-dioxothiazolidin-3-yl)acetic acid] | 24.1 | > 100 | > 100 | 0.47 |  |
| O=C(O)CN1C(=O)SC(=Cc2ccc(Cl)cc2)C1=O [3c, 2-(5-(4-chlorobenzylidene)-2,4-dioxothiazolidin-3-yl)acetic acid] | 3.1 | > 100 | > 100 | 0.66 |  |

Second part, the compound after the results:

| Ki ([1]; read-out: hCA IX) [µM] | Ki [2] [µM] | Ki [3] [µM] | Ki [4] [µM] | Ki ([1]; read-out: hCA I) [µM] | Compound |
| --- | --- | --- | --- | --- | --- |
| 3.2 | > 100 | > 100 | 0.85 |  | COc1ccc(C=C2SC(=O)N(CC(=O)O)C2=O)cc1 [3f, 2-(5-(4-methoxybenzylidene)-2,4-dioxothiazolidin-3-yl) acetic acid] |
|  | > 100 | > 100 | 0.3 | > 100 | COc1cccc(C=C2SC(=O)N(CC(=O)O)C2=O)c1 [3g, 2-(5-(3-methoxybenzylidene)-2,4-dioxothiazolidin-3-yl) acetic acid] |
|  | > 100 | > 100 | 0.93 | > 100 | Cc1ccc(C=C2SC(=O)N(CC(=O)O)C2=O)cc1 [3b] |
| 22.2 | > 100 | > 100 | 0.58 |  | O=C(O)CN1C(=O)SC(=Cc2ccccc2)C1=O [3a, 2-(5-benzylidene-2,4-dioxothiazolidin-3-yl)acetic acid] |

Source: publication PMC7006686, “A class of carbonic anhydrase IX/XII – selective carboxylate inhibitors” (Journal of Enzyme Inhibition and Medicinal Chemistry, 2020)
